# According to ChEMBL document CHEMBL3244140, “Folate antagonists. 12. Antimalarial and antibacterial effects of 2,4-diamino-6-[(aralkyl and alicyclid)thio-, sulfinyl-, and sulfonyl]quinazolines” (J Med Chem, 1978):
# Active and inactive are the calls of the source. The calls are words filed in the database; no cut-off is given here.
# Experiments:
# Plasmodium berghei [1] = test: Antiplasmodial activity against drug-sensitive Plasmodium berghei infected in mouse assessed as cure from infection at 640 mg/kg, sc administered as single dose 72 hrs post infection measured 60 days postinfection; format: functional, organism-based; design: dose 640 mg/kg
# Plasmodium berghei [2] = test: Antiplasmodial activity against drug-sensitive Plasmodium berghei infected in mouse assessed as change in mean survival time at 320 mg/kg, sc administered as single dose 72 hrs post infection measured 60 days postinfection; format: functional; conditions: route subcutaneous
# Plasmodium berghei [3] = test: Antiplasmodial activity against drug-sensitive Plasmodium berghei infected in mouse assessed as change in mean survival time at 160 mg/kg, sc administered as single dose 72 hrs post infection; format: functional; conditions: route subcutaneous
# Plasmodium berghei [4] = test: Antiplasmodial activity against drug-sensitive Plasmodium berghei infected in mouse assessed as change in mean survival time at 80 mg/kg, sc administered as single dose 72 hrs post infection; format: functional; conditions: route subcutaneous
# Plasmodium berghei [5] = test: Antiplasmodial activity against drug-sensitive Plasmodium berghei infected in mouse assessed as change in mean survival time at 40 mg/kg, sc administered as single dose 72 hrs post infection; format: functional; conditions: route subcutaneous
# Plasmodium berghei [6] = test: Antiplasmodial activity against drug-sensitive Plasmodium berghei infected in mouse assessed as change in mean survival time at 20 mg/kg, sc administered as single dose 72 hrs post infection; format: functional; conditions: route subcutaneous
# Enterococcus faecalis = test: Antibacterial activity against Streptococcus faecalis MGH2 assessed as growth inhibition by Gradient plate test; format: functional
# Staphylococcus aureus [7] = test: Antibacterial activity against Staphylococcus aureus UC-76 assessed as growth inhibition by Gradient plate test; format: functional
# Staphylococcus aureus [8] = test: Antibacterial activity against drug-resistant Staphylococcus aureus S18713 assessed as growth inhibition by Gradient plate test; format: functional
# Pseudomonas aeruginosa = test: Antibacterial activity against Pseudomonas aeruginosa 28 by Gradient plate test; format: functional, organism-based
# Escherichia coli = test: Antibacterial activity against Escherichia coli Vogel by Gradient plate test; format: functional, organism-based
# Shigella sonnei = test: Antibacterial activity against Shigella sonnei C-10 by Gradient plate test; format: functional, organism-based
# Plasmodium berghei [9] = test: Antiplasmodial activity against drug-sensitive Plasmodium berghei infected in mouse assessed as change in mean survival time at 640 mg/kg, sc administered as single dose 72 hrs post infection; format: functional; conditions: route subcutaneous
# Mus musculus [10] = test: Toxicity in drug-sensitive Plasmodium berghei infected mouse at 640 mg/kg, sc administered as single dose 72 hrs post infection […]; format: organism-based; design: dose 640 mg/kg, route subcutaneous; conditions: in vivo
# Mus musculus [11] = test: Toxicity in drug-sensitive Plasmodium berghei infected mouse at 320 mg/kg, sc administered as single dose 72 hrs post infection measured 2 to 5 days postinfection; format: organism-based; design: dose 320 mg/kg, route subcutaneous; conditions: in vivo
# Plasmodium berghei [12] = test: Antiplasmodial activity against drug-sensitive Plasmodium berghei infected in mouse assessed as cure from infection at 160 mg/kg, sc administered as single dose 72 hrs post infection measured 60 days postinfection; format: functional, organism-based; design: dose 160 mg/kg
# Plasmodium berghei [13] = test: Antiplasmodial activity against drug-sensitive Plasmodium berghei infected in mouse assessed as cure from infection at 320 mg/kg, sc administered as single dose 72 hrs post infection measured 60 days postinfection; format: functional, organism-based; design: dose 320 mg/kg
SMILES,Activity (Plasmodium berghei [1]),MSD (Plasmodium berghei [2]) [days],MSD (Plasmodium berghei [3]) [days],MSD (Plasmodium berghei [4]) [days],MSD (Plasmodium berghei [5]) [days],MSD (Plasmodium berghei [6]) [days],MIC (Enterococcus faecalis) [µg/mL],MIC (Staphylococcus aureus [7]) [µg/mL],MIC (Staphylococcus aureus [8]) [µg/mL],Activity (Pseudomonas aeruginosa),Activity (Escherichia coli),Activity (Shigella sonnei),MSD (Plasmodium berghei [9]) [days],Activity (Mus musculus [10]),Activity (Mus musculus [11]),Activity (Plasmodium berghei [12]),Activity (Plasmodium berghei [13])
Nc1nc(N)c2cc(SC3CCCCC3)ccc2n1,Active,12.9,9.1,5.7,2.5,0.7,10,< 0.25,10,inactive,inactive,inactive,,,,,
Nc1nc(N)c2cc(SCCc3ccccc3)ccc2n1,,17.2,4.5,0.9,0.5,0.5,,,,,,,,,,,
Nc1nc(N)c2cc([S+]([O-])Cc3ccc(Cl)cc3)ccc2n1 (stereo unspecified),,2.9,0.9,0.7,0.5,0.3,> 25,25,> 25,inactive,inactive,inactive,5.9,,,,
COc1cc(Cc2cnc(N)nc2N)cc(OC)c1OC [TRIMETHOPRIM],,,,,,,< 0.25,< 0.25,< 0.25,inactive,inactive,inactive,,,,,
Nc1nc(N)c2cc(SC34CC5CC(CC(C5)C3)C4)ccc2n1,,1.1,0.3,0.3,0.3,0.1,< 0.25,< 0.25,< 0.25,inactive,inactive,inactive,10.7,,,,
Nc1nc(N)c2c(Cl)c(SCc3ccc(Cl)cc3)ccc2n1,,3.1,1.7,1.1,0.5,0.5,,,,,,,7.9,,,,
Nc1nc(N)c2cc(S(=O)(=O)Cc3ccc(Cl)cc3)ccc2n1,,0.9,0.3,0.3,0.1,0.1,> 25,> 25,> 25,inactive,inactive,inactive,5.9,,,,
Nc1nc(N)c2cc(SCc3ccc(Cl)cc3)ccc2n1,,9.8,4.2,2.6,0.8,0.4,< 0.25,< 0.25,< 0.25,inactive,inactive,inactive,17.3,,,,
Nc1nc(N)c2cc(OCc3ccc(Cl)cc3)ccc2n1,,11.2,7.2,3.6,1.7,1.2,,,,,,,13.3,,,,
Nc1nc(N)c2c(Cl)c(S(=O)(=O)Cc3ccc(Cl)cc3)ccc2n1,,,0.1,,0.1,,< 0.25,5,10,inactive,inactive,inactive,0.1,,,,
Nc1nc(N)c2cc(SCc3ccccc3)ccc2n1,,4.9,1.1,0.9,0.5,0.5,,,,,,,10.7,,,,
CC(Sc1ccc2nc(N)nc(N)c2c1)c1ccc(Cl)cc1 (stereo unspecified),Active,17,10.9,9.6,5.7,3.7,< 0.25,< 0.25,1,inactive,inactive,inactive,,,,,
Nc1nc(N)c2c(Cl)c([S+]([O-])Cc3ccc(Cl)cc3)ccc2n1 (stereo unspecified),,,0.3,,0.1,,< 0.25,> 25,> 25,inactive,inactive,inactive,0.3,,,,
CC1(C)N=C(N)N=C(N)N1c1ccc(Cl)cc1.Cl [CHLORCYCLOGUANIL HYDROCHLORIDE],,,,21.6,13.4,7.9,,,,,,,,Toxic,Toxic,Active,
CC(=O)O.Nc1nc(N)c2cc(NCc3ccc(Cl)c(Cl)c3)ccc2n1,Active,,9.9,12.9,7.1,2.5,,,,,,,,,,,Active
